Where a name gives a salt, the structure may show the parent alone. Read-outs that look alike come from different tables or passages of the source. Where a SMILES comes first, the peptide text is derived from it. [ ]: non-standard residue; d: D form. pGlu = O=C1CC[C@@H](C(=O)O)N1
Columns and labels:
Format in all cases: biochemical
plasmin = plasmin (Homo sapiens, UniProt P00747); assay: Inhibitory activity against plasmin (synthetic substrate PS-994); details: Table 3; substrate PS-994, pH 7.8, 37° C.
Experimental: As a stopping (color forming) solution, there was used the one from the kit of Sankyo Color Test in the case of CHA type substrate. Enzyme reactions were carried out at 37° C.
To 0.4 ml of buffer solution (150 mM sodium chloride aqueous solution containing 100 mM Tris, pH 7.8) is added an aqueous solution (0.1 ml) of the inhibitor having various concentrations. The mixture is heated for 5 minutes. After 0.2 ml of plasmin solution is added thereto, the mixture is reacted for 5 minutes. […] After completion of the reaction, 2.0 ml of the stopping color forming solution is added.

thrombin = thrombin (Bos taurus, UniProt P00735); assay: Inhibitory activity against thrombin (synthetic substrate PS-915); details: Table 3; substrate PS-915, pH 8.5, 37° C.
From the text: (§1) As synthetic substrates for examining the activity of inhibitor for inhibiting digestion of the substrates with enzyme, there were used PS-994 (H-D-Lys(Tos)-Phe-Lys-CHA.2HCl; manufactured by Nitto Boseki Co., Ltd.) for plasmin, PS-915 (H-D-Phe-Pro-Arg-CHA.2HCl; manufactured by Nitto Boseki Co., Ltd.) for thrombin and trypsin; PS-2000 (Z-D-Lys(HCO)-Gly-Arg-CHA.HCl; manufactured by Nitto Boseki Co., Ltd.) for factor Xa; S-2302 (H-D-Pro-Phe-Arg-pNA; manufactured by Kabi Co., Ltd.) for kallikrein; and [drawing 2] manufactured by Nitto Boseki Co., Ltd.) for urokinase.
(§2) As plasmin, thrombin, trypsin, factor Xa, kallikrein and urokinase, there were used 0.3 CU/ml of standard plasmin from Sankyo Color Test α2 -PI Measurement Kit, 1.2 NIH U/ml of thrombin from Sankyo Color Test AT-III Measurement Kit, 2 μg/ml of trypsin of Code 3703 of Worthington, 0.25 U/ml of human factor Xa manufactured by Boehringer Mannheim, 0.12 U/ml of human serum kallikrein manufactured by Kabi Co., Ltd. and 1000 U/ml of Urokinase 60000 (60,000 U/vial) manufactured by Mochida Pharmaceutical Co., Ltd., respectively. As a stopping (color forming) solution, there was used the one from the kit of Sankyo Color Test in the case of CHA type substrate. Enzyme reactions were carried out at 37° C.
To 0.4 ml of buffer solution (150 mM sodium chloride aqueous solution containing 150 mM Tris, pH 8.5) is added an aqueous solution (0.1 ml) of the inhibitor having various concentrations. The mixture is heated for 5 minutes. After 0.2 ml of thrombin solution is added thereto, the mixture is reacted for 5 minutes. Then 0.1 ml of PS-915 solution (10 mM) is added followed by reaction for 5 minutes. Thereafter, 2 ml of the stopping color forming solution is added. After allowing to stand for 10 minutes, absorbance is measured at 700 nm and IC50 is determined according to the method described above.

trypsin = target: T1, trypsin (Bos taurus, UniProt P00760); assay: Inhibitory activity against trypsin (synthetic substrate PS-915); details: Table 3; substrate PS-915, pH 8.0, 37° C.
T1 construct: purchased Worthington Code 3703
T1 sequence (P00760 24-246): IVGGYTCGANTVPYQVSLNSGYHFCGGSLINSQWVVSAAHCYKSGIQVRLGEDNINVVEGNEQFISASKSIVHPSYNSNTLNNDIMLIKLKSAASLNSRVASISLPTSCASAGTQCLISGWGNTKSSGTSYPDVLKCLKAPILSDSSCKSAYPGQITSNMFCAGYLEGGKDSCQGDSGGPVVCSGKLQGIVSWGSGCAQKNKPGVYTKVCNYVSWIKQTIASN
From the text: as §1, §2
To 0.5 ml of buffer solution (150 mM sodium chloride aqueous solution containing 150 mM Tris, pH 8.0) is added 0.1 ml of an aqueous solution of the inhibitor. After the mixture is heated for 5 minutes, 0.1 ml of trypin solution is added thereto. Further 0.1 ml of PS-915 solution (10 mM) is added followed by reaction for 5 minutes. Thereafter, 2 ml of the stopping color forming solution [containing 2.5 mg/ml of soybean trypsin inhibitor (manufactured by Sigma Co., No. T-9003)] is added. After allowing to stand for 10 minutes, absorbance is measured at 700 nm and IC50 is determined according to the method described above.

human serum kallikrein = target: T2, human serum kallikrein (Homo sapiens, UniProt P03952); assay: Inhibitory activity against kallikrein (synthetic substrate S-2302); details: substrate S-2302, pH 8.0, 37° C.
T2 construct: purchased Kabi Co., Ltd
From the text: as §1, §2
To 0.4 ml of buffer solution (150 mM sodium chloride aqueous solution containing 50 mM Tris, pH 8.0) is added 0.1 ml of an aqueous solution of the inhibitor. After the mixture is heated for 5 minutes, 0.1 ml of kallikrein solution (containing 0.5% bovine serum albumin, No. A-8022 manufactured by Sigma Co.) is added thereto followed by reaction for 5 minutes. Further 10 mM S-2302 aqueous solution (0.1 ml) is added thereto. After reacting for 5 minutes, 5 ml of 20% acetic acid aqueous solution is added to terminate the reaction. Absorbance is measured at 405 nm and IC50 is determined according to the method described above.

human factor Xa = target: T3, human factor Xa (Homo sapiens, UniProt P00742); assay: Inhibitory activity against factor Xa (synthetic substrate PS-2000); details: Table 3; substrate PS-2000, pH 8.5, 37° C.
T3 construct: purchased Boehringer Mannheim
From the text: as §1, §2
To 0.3 ml of buffer solution (150 mM sodium chloride aqueous solution containing 50 mM Tris, pH 8.5) is added 0.1 ml of an aqueous solution of the inhibitor having various concentrations. After the mixture is heated for 5 minutes, 0.1 ml of factor Xa solution (150 mM sodium chloride aqueous solution containing 50 mM Tris and 20 mM calcium chloride, pH 8.5) is added thereto and the mixture is reacted for 5 minutes. Further 5% polyvinylpyrrolidone solution (0.1 ml) containing 10 mM PS-2000 is added followed by reaction for 5 minutes. Thereafter, 2 ml of the stopping color forming solution is added. After allowing to stand for 10 minutes, absorbance is measured at 700 nm and IC50 is determined according to the method described above.

urokinase = target: T4, urokinase (Homo sapiens, UniProt P00749); assay: Inhibitory activity against urokinase (synthetic substrate MUK-34); details: Table 3; substrate MUK-34, pH 8.20, 37° C.
T4 construct: purchased Mochida Pharmaceutical Co., Ltd. Urokinase 60000 (60,000 U/vial)
From the text: as §1, §2
To 0.3 ml of buffer solution (150 mM sodium chloride aqueous solution containing 50 mM Tris, pH 8.20) is added 0.1 ml of an aqueous solution of the inhibitor having various concentrations. After the mixture is heated for 5 minutes, 0.1 ml of urokinase solution (150 mM sodium chloride aqueous solution containing 50 mM Tris and 0.1% BSA, pH 8.20) is added thereto and the mixture is reacted for 5 minutes. Then 10 mM MUK-34 aqueous solution (0.1 ml) is added to the mixture. After reacting for 5 minutes, 10% acetic acid aqueous solution (2.0 ml) is added to terminate the reaction. Absorbance is measured at 405 nm and IC50 is determined according to the method described above.

[1] = Table 3, read-out: IC50, kallikrein (Table 3)

plasmin, sequence (P00747 97-810): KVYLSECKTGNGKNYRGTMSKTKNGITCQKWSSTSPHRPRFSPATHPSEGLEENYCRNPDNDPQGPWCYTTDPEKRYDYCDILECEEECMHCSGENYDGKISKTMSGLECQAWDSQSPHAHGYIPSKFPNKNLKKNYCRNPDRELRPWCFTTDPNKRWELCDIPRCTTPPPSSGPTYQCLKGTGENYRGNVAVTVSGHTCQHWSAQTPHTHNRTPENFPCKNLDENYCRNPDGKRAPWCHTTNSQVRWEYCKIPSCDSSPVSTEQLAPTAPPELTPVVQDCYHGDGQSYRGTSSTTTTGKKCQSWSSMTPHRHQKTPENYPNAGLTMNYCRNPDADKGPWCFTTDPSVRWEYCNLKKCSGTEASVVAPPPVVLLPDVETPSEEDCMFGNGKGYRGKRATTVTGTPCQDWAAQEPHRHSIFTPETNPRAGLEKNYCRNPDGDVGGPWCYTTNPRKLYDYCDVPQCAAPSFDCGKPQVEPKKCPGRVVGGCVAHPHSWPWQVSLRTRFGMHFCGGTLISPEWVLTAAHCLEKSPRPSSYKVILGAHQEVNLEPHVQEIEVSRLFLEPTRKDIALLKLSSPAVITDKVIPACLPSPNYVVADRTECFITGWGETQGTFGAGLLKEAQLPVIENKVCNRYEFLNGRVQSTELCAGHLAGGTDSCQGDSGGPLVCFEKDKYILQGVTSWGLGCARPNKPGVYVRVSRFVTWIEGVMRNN
T3 sequence (P00742 235-488 limits assumed): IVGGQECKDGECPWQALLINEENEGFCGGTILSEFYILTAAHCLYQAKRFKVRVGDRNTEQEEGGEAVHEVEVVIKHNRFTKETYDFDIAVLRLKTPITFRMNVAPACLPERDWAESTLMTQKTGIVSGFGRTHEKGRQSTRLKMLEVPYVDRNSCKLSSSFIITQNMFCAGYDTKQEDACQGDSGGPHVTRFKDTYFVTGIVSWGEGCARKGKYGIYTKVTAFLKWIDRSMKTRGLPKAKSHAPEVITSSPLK
T3 sequence (P00742 41-179 partner limits assumed): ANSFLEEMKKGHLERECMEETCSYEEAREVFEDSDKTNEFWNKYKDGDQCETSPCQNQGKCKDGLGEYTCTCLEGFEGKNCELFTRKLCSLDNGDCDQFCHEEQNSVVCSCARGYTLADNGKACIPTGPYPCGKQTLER
T2 sequence (P03952 391-638 limits assumed): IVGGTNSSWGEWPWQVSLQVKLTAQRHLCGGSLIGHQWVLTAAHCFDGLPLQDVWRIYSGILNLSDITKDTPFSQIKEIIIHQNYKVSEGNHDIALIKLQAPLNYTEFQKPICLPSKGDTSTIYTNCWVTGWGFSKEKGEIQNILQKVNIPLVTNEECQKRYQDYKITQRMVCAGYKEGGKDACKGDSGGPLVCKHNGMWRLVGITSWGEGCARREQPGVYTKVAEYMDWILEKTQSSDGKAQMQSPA
T2 sequence (P03952 20-390 partner limits assumed): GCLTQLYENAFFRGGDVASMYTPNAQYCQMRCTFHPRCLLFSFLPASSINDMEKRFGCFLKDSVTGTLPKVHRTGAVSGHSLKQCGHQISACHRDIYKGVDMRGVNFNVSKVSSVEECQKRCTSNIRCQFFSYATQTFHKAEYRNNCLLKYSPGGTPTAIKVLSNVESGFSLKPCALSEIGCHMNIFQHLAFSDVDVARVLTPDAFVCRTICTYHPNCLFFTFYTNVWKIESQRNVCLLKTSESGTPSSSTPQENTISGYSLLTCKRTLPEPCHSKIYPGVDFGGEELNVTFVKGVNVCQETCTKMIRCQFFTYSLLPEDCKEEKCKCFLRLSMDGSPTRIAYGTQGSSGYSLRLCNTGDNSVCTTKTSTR

Row | IC50 (human serum kallikrein; Table 2, read-out: IC50 of Known Compound, Kallikrein) | Compound | IC50 (plasmin) | IC50 (thrombin) | IC50 (trypsin) | IC50 (human serum kallikrein; [1]) | IC50 (human factor Xa) | IC50 (urokinase)
1 |  | N-benzyloxycarbonyl-L-pyroglutamyl-L-alanyl-L-argininal hydrochloride [Example 2] | 7.2 µM | 5.9 µM | 0.0074 µM | 7.8 µM | 0.52 µM | 7.6 µM
2 |  | N-benzyloxycarbonyl-D-pyroglutamyl-L-phenylalanyl-L-argininal hydrochloride [Example 9] | 1.3 µM | > 100 µM | 1 µM | 0.87 µM | 0.72 µM | 40 µM
3 |  | N-benzyloxycarbonyl-D-pyroglutamyl-L-prolyl-L-argininal hydrochloride [Example 6] | 4.6 µM | 22 µM | 0.062 µM | 13 µM | 5 µM | 1.1 µM
4 | 6.9 µM | CC(=O)N[C@@H](CC(C)C)C(=O)N[C@@H](CC(C)C)C(=O)N[C@H](C=O)CCCNC(=N)N [Example A1, acetyl-L-leucyl-L-leucyl-L-argininal, reference compound] |  |  |  |  |  | 
5 |  | N-benzyloxycarbonyl-L-pyroglutamyl-L-prolyl-L-argininal hydrochloride [Example 1] | 3.2 µM | 0.056 µM | 0.0062 µM | 5 µM | 0.36 µM | 22 µM
6 |  | N=C(N)NCCC[C@@H](C=O)NC(=O)[C@@H]1CCCN1C(=O)[C@@H]1CCC(=O)N1 [Example 13, L-pyroglutamyl-L-prolyl-L-argininal 1/2 sulfate] ([pGlu]-Pro-Arg-aldehyde) | 1.4 µM | 22 µM | 0.02 µM | 5.5 µM | 13 µM | 0.68 µM
7 |  | N-benzyloxycarbonyl-L-pyroglutamyl-L-phenylalanyl-L-argininal hydrochloride [Example 3] | 1.1 µM | 35 µM | 0.069 µM | 0.42 µM | 0.59 µM | 76 µM
8 |  | N-benzyloxycarbonyl-D-pyroglutamyl-L-leucyl-L-argininal hydrochloride [Example 7] | 2.8 µM | > 100 µM | 0.43 µM | 3.1 µM | 4.7 µM | 30 µM

Reference: patent publication US5508385A, “Tripeptide derivatives containing pyroglutamic acid residue” (Nitto Boseki Co., Ltd., priority 1990, dated 1996)
